Consider four molecules from patent publication EP1131337B1 (DABUR PHARMA LTD., priority 1998, dated 2000).

For data set [1], the system named is lung cancer cells (L 132). Kind of data set: MTT cytotoxicity assay, lung cancer. The class given is cell-based, human. To be noted: 72 hours. How it is done:
(§1) After 72 hours, the assay was terminated and percent cyotoxicities calculated.
(Tetrazolium dyes change colour on reduction, which living cells bring about.)

Data set [2] has as its system human leukemia (MOLT-4). The data set can be described thus: MTT cytotoxicity assay, leukemia. It is filed as cell-based. To be noted: 72 hours. How it is done: as §1
The subject of data set [3] is laryngeal cancer cells(HeP.2). The data set can be described thus: MTT cytotoxicity assay, laryngeal cancer. It is filed as cell-based, human. To be noted: 72 hours. How it is done:
as §1

The subject of data set [4] is ovarian cancer cells (PA-1). The data set can be described thus: MTT cytotoxicity assay, ovarian cancer. To be noted: 72 hours. It is filed as cell-based, human. The method, then:
as §1

For data set [5], the system named is colon cancer cells (HT29). Kind of data set: MTT cytotoxicity assay, colon cancer. It is filed as cell-based, human. To be noted: 72 hours. How it is done: as §1
Data set [6] deals with prostate cancer cells (DU 145). Kind of data set: MTT cytotoxicity assay, prostate cancer. The class given is cell-based, human. To be noted: 72 hours. How it is done: as §1
Data set [7] has as its system lymphoma cells (U937). Kind of data set: MTT cytotoxicity assay, lymphoma. To be noted: 72 hours. The class given is cell-based, human. How it is done: as §1
Data set [8] has as its system human melanomas. To be noted: athymic mice carrying human melanomas; Nature Medicine 1995, WO 96/29068; cited from earlier work.
For data set [9], the system named is P388 lymphocytic leukemia cells. To be noted: Choi et al., Planta Medica 1988; cited from earlier work.

In brackets after ≈: the same amount, converted by molar mass.

Turning to `CC(C)C1CCC2(C(=O)O)CCC3(C)C(CCC4C5(C)CCC(=NOCc6ccc([N+](=O)[O-])cc6)C(C)(C)C5CCC43C)C12` (stereo not shown) [compound 1098], in [1], the “ED50 Lung L132” value worked out at 1.3 µg/mL (≈ 2.14 µM). For the same molecule, the “ED50 Leukemia MOLT-4” value in [2] was 0.5 µg/mL (≈ 0.824 µM). The “ED50 Larynx Hep.2” value in data set [3] came out at 1.0 µg/mL (≈ 1.65 µM). The “ED50 Ovary PA-1” value in data set [4] is 0.9 µg/mL (≈ 1.48 µM). In data set [5], the “ED50 Colon HT-29” value was found to be 2.6 µg/mL (≈ 4.28 µM). For the same molecule, the “ED50 Prostate DU145” value in data set [6] was found to be 1.5 µg/mL (≈ 2.47 µM). In [7], the “ED50 Lymphoma 0 937” value was determined as 0.4 µg/mL (≈ 0.659 µM).
With `C=C(C)[C@@H]1CC[C@]2(C(=O)O)CC[C@]3(C)[C@H](CC[C@@H]4[C@@]5(C)CC[C@H](O)C(C)(C)[C@@H]5CC[C@]43C)[C@@H]12` [betulinic acid], the toxicity result in data set [8] is on record as “without toxicity”.
For `C=C(C)[C@@H]1CC[C@]2(C(=O)O)CC[C@]3(C)[C@H](CC[C@@H]4[C@@]5(C)CC[C@H](OC(C)=O)C(C)(C)[C@@H]5CC[C@]43C)[C@@H]12` [betulinic acid 3-monoacetate], the ED50 in data set [9] is 10.5 µg/mL (≈ 21.1 µM).
In the case of `C=C(C)[C@@H]1CC[C@]2(C(=O)OC)CC[C@]3(C)[C@H](CC[C@@H]4[C@@]5(C)CC[C@H](O)C(C)(C)[C@@H]5CC[C@]43C)[C@@H]12` [betulinic acid methyl ester], the ED50 in [9] was 6.8 µg/mL (≈ 14.4 µM).
